Results published in patent US20100041700A1, “Substituted 1-(Azolin-2-yl)-Amino-1,2-Heterocyclyl-Ethane Compounds For Combating Pests” (BASF SE, priority 2006, published 2010).

Legend:
[1] = test system: Cowpea Aphid (Aphis craccivora); assay: Cowpea aphid (Aphis craccivora) spray test on potted cowpea plants; assay type: in vivo; settings: in comparison with untreated controls, population reduction recorded after 24, 72 and 120 hours, read-out: mortality against cowpea aphid
Experimental: B.1. Cowpea Aphid (Aphis craccivora)
The active compounds were formulated in 50:50 acetone:water. Potted cowpea plants colonized with 100-150 aphids of various stages were sprayed after the pest population has been recorded. Population reduction was recorded after 24, 72, and 120 hours.

[2] = test system: Green Peach Aphid (Myzus persicae); assay: Green peach aphid (Myzus persicae) leaf dip test on pepper plants; assay type: in vivo; settings: foliar, 120 h, in comparison with untreated controls, determined after 5 days, read-out: mortality against green-peach aphid
Experimental: B.2. Green Peach Aphid (Myzus persicae)
Pepper plants in the 2nd leaf-pair stage (variety ‘California Wonder’) were infested with approximately 40 laboratory-reared aphids by placing infested leaf sections on top of the test plants. The leaf sections were removed after 24 hours. The leaves of the intact plants were dipped into gradient solutions of the test compound. Aphid mortality on the treated plants, relative to mortality on check plants, was determined after 5 days.

SMILES | mortality at 300 ppm [1] | mortality at 300 ppm [2]
Cc1ccsc1C(Cc1ccncc1)NC1=NCCS1 (stereo not drawn) [C.I.9] | > 80% | 
Brc1ccsc1C(Cc1ccncc1)NC1=NCCS1 (stereo not drawn) [C.I.10] |  | > 80%
c1ccc(CC(NC2=NCCS2)c2cccs2)nc1 (stereo not drawn) [C.I.12] | > 80% | 
